In ChEMBL document CHEMBL2390918, “Cinnamides as selective small-molecule inhibitors of a cellular model of breast cancer stem cells” (Bioorg Med Chem Lett, 2013):
Activity calls are given as the source filed them. No cut-off for these calls is given here.

How the values were obtained:
[1] = Cytotoxicity against human HMLE cells expressing shRNA and GFP at 20 uM after 70 to 74 hrs by Cell Titer Glo assay; format: cell-based
HMLE = experiment: Cytotoxicity against human CSC-like HMLE cells expressing shRNA and epithelial cadherin at 20 uM after 70 to 74 hrs by Cell Titer Glo assay; format: functional, cell-based
[2] = Cytotoxicity against human CSC-like HMLE cells expressing shRNA and epithelial cadherin after 70 to 74 hrs by Cell Titer Glo assay; format: functional, cell-based
[3] = Cytotoxicity against human HMLE cells expressing shRNA and GFP after 70 to 74 hrs by Cell Titer Glo assay; format: cell-based

Compound | Activity [1] | Activity (HMLE) | EC50 [2] | EC50 [3]
COc1ccc(/C=C/C(=O)NC2=NCCS2)c(OC)c1OC | Non-toxic | inactive |  | 
COc1ccc(/C=C/C(=O)NC2=NCCS2)c(OC)c1 | Non-toxic |  | 9.91 µM | 
N#Cc1ccc(/C=C/C(=O)NC2=NCCS2)cc1 | Non-toxic |  | 26.9 µM | 
Cc1c(C(=O)NC2=NCCS2)oc2ccccc12 | Non-toxic | inactive |  | 
CC(C)c1ccc(/C=C\C(=O)NC2=NCCS2)cc1 | Non-toxic | inactive |  | 
COc1cc(C(C)C)ccc1/C=C/C(=O)NC1=NCCS1 | Non-toxic |  | 28.4 µM | 
N#Cc1cccc(/C=C/C(=O)NC2=NCCS2)c1 | Non-toxic | inactive |  | 
COc1cc(OC(C)C)ccc1/C=C/C(=O)NC1=NCCS1 | Non-toxic | inactive |  | 
O=C(/C=C/c1ccc(Cl)cc1Cl)NC1=NCCS1 | Non-toxic | inactive |  | 
O=C(/C=C/c1ccc(Cl)c(Cl)c1)NC1=NCCS1 | Non-toxic | inactive |  | 
Cc1cccc(/C=C/C(=O)NC2=NCCS2)c1 | Non-toxic | inactive |  | 
COc1ccccc1/C=C/C(=O)NC1=NCCS1 |  | inactive |  | 93.3 µM
COc1cc(/C=C/C(=O)NC2=NCCS2)cc(OC)c1OC | Non-toxic | inactive |  | 
COc1ccc(OC)c(/C=C/C(=O)NC2=NCCS2)c1 | Non-toxic | inactive |  | 
O=C(/C=C/c1cc(Cl)ccc1Cl)NC1=NCCS1 | Non-toxic | inactive |  | 
CC(C)c1ccc(/C=C/C(=O)N(C)C2=NCCS2)cc1 |  | inactive |  | 21.1 µM
Cc1ccccc1/C=C/C(=O)NC1=NCCS1 | Non-toxic | inactive |  | 
Cc1ccc(/C=C/C(=O)NC2=NCCS2)cc1 | Non-toxic |  | 16 µM | 

Compound | Activity [1] | Activity (HMLE) | EC50 [2] | EC50 [3]
Cn1c(C(=O)NC2=NCCS2)cc2ccccc21 | Non-toxic | inactive |  | 
CC(C)c1ccc(C#CC(=O)NC2=NCCS2)cc1 | Non-toxic | inactive |  | 
CC(C)c1ccc(C2CC2C(=O)NC2=NCCS2)cc1 (configuration not stated) | Non-toxic | inactive |  | 
CCNC(=O)/C=C/c1ccc(C(C)C)cc1 | Non-toxic | inactive |  | 
O=C(/C=C/c1ccccc1Cl)NC1=NCCS1 | Non-toxic |  | 35 µM | 
N#Cc1ccccc1/C=C/C(=O)NC1=NCCS1 | Non-toxic | inactive |  | 
O=C(/C=C/c1ccc(C(F)(F)F)cc1)NC1=NCCS1 | Non-toxic | inactive |  | 
O=C(/C=C/c1ccccc1)NC1=NCCS1 | Non-toxic | inactive |  | 
C/C(=C\C(=O)NC1=NCCS1)c1ccc(C)cc1 | Non-toxic | inactive |  | 
O=C(NC1=NCCS1)c1cc2ccccc2[nH]1 | Non-toxic | inactive |  | 
CN(C)c1ccc(/C=C/C(=O)NC2=NCCS2)cc1 | Non-toxic |  | 27.4 µM | 
CC(C)c1ccc(/C=C(\C#N)C(=O)NC2=NCCS2)cc1 | Non-toxic | inactive |  | 
CCN(CC)C(=O)/C=C/c1ccc(C(C)C)cc1 | Non-toxic | inactive |  | 
CC(C)c1ccc(CCC(=O)NC2=NCCS2)cc1 | Non-toxic |  | 9.91 µM | 
O=C(/C=C/c1ccc(F)cc1)NC1=NCCS1 | Non-toxic | inactive |  | 
C/C(=C\C(=O)NC1=NCCS1)c1ccc(CC(C)C)cc1 | Non-toxic | inactive |  | 
COc1ccc(/C=C/C(=O)NC2=NCCS2)cc1OC | Non-toxic | inactive |  | 
CC(C)c1ccc(/C=C/C(=O)O)cc1 | Non-toxic | inactive |  | 
